Tests used:
HepG2 = assay: Cytotoxicity against MDR1 Pgp overexpressing human HepG2 cells after 24 hrs by MTT assay; assay type: functional, cell-based; details: HepG2, 24 h
HCT-116 = assay: Cytotoxicity against MDR1 Pgp under-expressing human HCT116 cells after 24 hrs by MTT assay; assay type: functional, cell-based; details: HCT-116, 24 h

Row | SMILES | IC50 (HepG2) | IC50 (HCT-116)
1 | CC(C)=CC[C@H](OC(=O)C1OC1C)C1=CC(=O)c2c(O)ccc(O)c2C1=O (some centres undefined) | 0.34 µM | 0.39 µM
2 | CC(C)=CC[C@@H](OC(=O)C(C)C)C1=CC(=O)c2c(O)ccc(O)c2C1=O [ISOBUTYLSHIKONIN] | 0.22 µM | 0.34 µM
3 | CCO[C@H](CC=C(C)C)C1=CC(=O)c2c(O)ccc(O)c2C1=O [ETHYLSHIKONIN] | 0.42 µM | 0.45 µM
4 | COc1cc(O)c2c(c1)C(=O)c1cc(C)cc(O)c1C2=O [PHYSCION] | 77.3 µM | 19 µM
5 | CC(C)=CC[C@H](OC(=O)C(C)C)C1=CC(=O)c2c(O)ccc(O)c2C1=O [ISOBUTYLALKANNIN] | 0.42 µM | 0.3 µM
6 | CCC(=O)Oc1cc(C)cc2c1C(=O)c1c(OC(=O)CC)cc(OC)cc1C2=O | > 100 µM | 9.2 µM
7 | O=C1c2cc(CO)cc(O)c2C(=O)c2c(O[C@@H]3O[C@H](CO)[C@@H](O)[C@H](O)[C@H]3O)cccc21 | > 100 µM | 75 µM
8 | CCC(=O)Oc1cccc2c1C(=O)c1c(OC(=O)CC)cc(C)cc1C2=O | > 100 µM | 14.8 µM
9 | Cc1cc(O)c2c(c1)C(=O)c1cccc(O)c1C2=O [CHRYSOPHANOL] | 64.4 µM | 47.4 µM
10 | O=C(O)c1cc(O)c2c(c1)C(=O)c1cccc(O)c1C2=O [RHEIN] | 12.3 µM | 13 µM
11 | CC(=O)O[C@H](CC=C(C)C)C1=CC(=O)c2c(O)ccc(O)c2C1=O [ACETYLSHIKONIN] | 0.38 µM | 0.45 µM
12 | CC(=O)O[C@@H](CC=C(C)C)C1=CC(=O)c2c(O)ccc(O)c2C1=O [ACETYLALKANNIN] | 0.39 µM | 0.34 µM
13 | O=C1c2cccc(O)c2C(=O)c2c(O)cc(CO)cc21 [ALOE-EMODIN] | 10 µM | 8.7 µM
14 | CC(C)=CC[C@@H](O)C1=CC(=O)c2c(O)ccc(O)c2C1=O [SHIKONIN] | 0.24 µM | 0.23 µM
15 | Cc1cc(O)c2c(c1)C(=O)c1cc(O)cc(O)c1C2=O [EMODIN] | 5.2 µM | 5.7 µM
16 | CC(C)=CC[C@@H](OC(=O)CC(C)(C)O)C1=CC(=O)c2c(O)ccc(O)c2C1=O [BETA-HYDROXYISOVALERYLSHIKONIN] | 0.59 µM | 0.37 µM
17 | O=C(O)c1cc(O)c2c(c1)[C@H]([C@H]1c3cc(C(=O)O)cc(O)c3C(=O)c3c(O[C@@H]4O[C@H](CO)[C@@H](O)[C@H](O)[C@H]4O)cccc31)c1cccc(O[C@@H]3O[C@H](CO)[C@@H](O)[C@H](O)[C@H]3O)c1C2=O [Sennoside A] | 51.6 µM | 68.2 µM

From ChEMBL document CHEMBL1156689, “Comparison of the cytotoxic activities of naturally occurring hydroxyanthraquinones and hydroxynaphthoquinones” (Eur J Med Chem, 2008)
